# Reference: US20200138892A1, “ANTI-DIABETIC ACTIVITY OF NEEM EXTRACT AND SYNERGISTIC COMBINATIONS OF UROLITHINS A AND B” (Natreon, Inc., priority 2018, published 2020)
# Marks after values point to notes of the source that are not given here.
# Legend:
# Format in all cases: in vivo
# [1] = tested on: streptozotocin-induced diabetic mice; experiment: Fasting blood glucose in streptozotocin-induced diabetic mice (Study 2); settings: for Fasting blood glucose: 10 mg/kg body weight orally; for Effect on STZ-induced increased sugar level (FBG), words: 10 mg/kg orally for 1 month, p<0.001 vs STZ
# Experimental: Body weight, food intake, water intake, and fasting blood glucose (blood was collected following 12 hours fasting) were measured pre-induction of diabetes. Diabetes was induced by administering streptozotocin (50 mg/kg, body weight) in sodium citrate buffer, pH 4.5, intraperitoneally. Five days after streptozotocin administration fasting blood glucose was estimated (following 12 hours of fasting). Mice having blood glucose level 250±20 mg % was considered for the following study. The male and female mice were divided into the following four groups (n=8):
# Following streptozotocin-induced hyperglycemia, treatment regimen was carried out for 1 month. 3-OH-DBP (Urolithin B) and 3,8-(OH)2-DBP (Urolithin A) each was separately suspended in 0.3% CMC and administered at a dose of 10 mg/kg body weight orally for 1 month. During the 1-month treatment, body weight and food and water intake were monitored at regular intervals. FBG (following 12 hours of fasting) was estimated twice at 15-day intervals. The results were expressed in terms of mean±SEM (n=8). The data were subjected to one-way ANOVA followed by Tukey's test using GraphPad Prism 4.0 software to establish statistical significance (*p<0.05, **p<0.01, ***p<0.001; ^# p<0.05, ^## p<0.01, ^### p<0.001).
# [2] = tested on: streptozotocin-induced diabetic mice; experiment: Fasting blood glucose in streptozotocin-induced diabetic mice (Study 1); settings: for Blood sugar level (FBG): 250 mg/kg b.w. orally; for Effect on STZ-induced increased sugar level (FBG), words: Neem 50, Neem 100, Neem 250, Met 250, vs STZ-induced diabetic mice
# Experimental: (§1) Body weight, food intake, water intake, and fasting basal blood glucose level were measured before induction on diabetes. Diabetes was induced by single administration of streptozotocin (65 mg/kg body weight) in sodium citrate buffer, pH 4.5, intraperitoneally. Five days after streptozotocin administration, fasting blood glucose level was estimated. Mice having blood glucose levels of 230±20 mg % were considered for the study. The male and female mice each were divided into the following groups:
# Following streptozotocin-induced hyperglycemia, the treatment regimen was carried out for two weeks. Neem extract was suspended in 0.3% sodium carboxymethylcellulose (“CMC”) and administered at a dose of 50 mg/kg b.w., 100 mg/kg b.w., and 250 mg/kg b.w. orally for two weeks. Similarly, metformin was suspended in 0.3% CMC and administered at a dose of 250 mg/kg b.w. orally for two weeks. During the treatment schedule, body weight and food and water intake were monitored at regular intervals. Fasting blood glucose (“FBG”), HbA1C, plasma cholesterol, and triglyceride levels were monitored every week for two weeks. The results were expressed in terms of mean±SEM (n=4, from each gender). The data were subjected to one-way ANOVA followed by Tukey's test using GraphPad Prism 4.0 software to establish statistical significance (*p<0.05, **p<0.01, ***p<0.001; ^# p<0.05, ^## p<0.01, ^### p<0.001).
# [3] = tested on: streptozotocin-induced diabetic mice; experiment: as above; settings: 250 mg/kg b.w. orally, Week 3
# [4] = tested on: streptozotocin-induced diabetic mice; experiment: HbA1C level in streptozotocin-induced diabetic mice (Study 1); settings: for HbA1C level: 250 mg/kg b.w. orally
# Experimental: as §1
# Following streptozotocin-induced hyperglycemia, the treatment regimen was carried out for two weeks. Neem extract was suspended in 0.3% sodium carboxymethylcellulose (“CMC”) and administered at a dose of 50 mg/kg b.w., 100 mg/kg b.w., and 250 mg/kg b.w. orally for two weeks. Similarly, metformin was suspended in 0.3% CMC and administered at a dose of 250 mg/kg b.w. orally for two weeks. During the treatment schedule, body weight and food and water intake were monitored at regular intervals. […] The results were expressed in terms of mean±SEM (n=4, from each gender). The data were subjected to one-way ANOVA followed by Tukey's test using GraphPad Prism 4.0 software to establish statistical significance (*p<0.05, **p<0.01, ***p<0.001; ^# p<0.05, ^## p<0.01, ^### p<0.001).
# [5] = STZ-induced diabetic female mice, Day 5 (Post-Induction)
# [6] = STZ-induced diabetic female mice, Day 15 of treatment
# [7] = STZ-induced diabetic female mice, Day 30 of treatment
# [8] = STZ-induced diabetic female mice, Pre-Induction
# [9] = STZ-induced diabetic male mice, Day 5 (Post-Induction)
# [10] = STZ-induced diabetic male mice, Day 15 of treatment
# [11] = STZ-induced diabetic male mice, Day 30 of treatment
# [12] = STZ-induced diabetic male mice, Pre-Induction
# [13] = STZ-induced diabetic female mice, Week 2
# [14] = STZ-induced diabetic male mice, Week 2
Compound,"Fasting blood glucose [1, 5]","Fasting blood glucose [1, 6]","Fasting blood glucose [1, 7]","Fasting blood glucose [1, 8] [mg %]","Fasting blood glucose [1, 9] [mg %]","Fasting blood glucose [1, 10]","Fasting blood glucose [1, 11]","Fasting blood glucose [1, 12]","Effect on STZ-induced increased sugar level (FBG), words ([1]; female mice)","Effect on STZ-induced increased sugar level (FBG), words ([1]; male mice)",further results
"O=c1oc2cc(O)ccc2c2ccc(O)cc12 [3,8-(OH)2-DBP, 3,8-dihydroxy-dibenzo-α-pyrone]",253.2 ± 5.194*** mg %,"166 ± 2.623***^, ### mg %","153.9 ± 9.953***^, ### mg %",95.45 ± 12.67,252.2 ± 1.780,"166 ± 5.276***^, ### mg %","156.7 ± 10.75***^, ### mg %",94.12 ± 7.811*** mg %,attenuated the STZ-induced increased sugar level,attenuated the STZ-induced increased sugar level,
"O=c1oc2cc(O)ccc2c2ccccc12 [3-OH-DBP, 3-hydroxy-dibenzo-α-pyrone]",251.6 ± 1.280*** mg %,"189.8 ± 2.690***^, ### mg %","147.3 ± 15.21***^, ### mg %",126.8 ± 3.848,254.6 ± 1.575,"171 ± 6.586***^, ### mg %","134.2 ± 3.381***^, ### mg %",99.06 ± 14.73*** mg %,attenuated the STZ-induced increased sugar level,attenuated the STZ-induced increased sugar level,
"CN(C)C(=N)N=C(N)N [Metformin, metformin]",,,,,,,,,,,"Blood sugar level (FBG) ([2]; STZ-induced diabetic female mice, Day 0): 119.2 ± 15.5 ^ mg %; Blood sugar level (FBG) ([2]; STZ-induced diabetic female mice, Week 1): 241.1 ± 22.19*** mg %; Blood sugar level (FBG) [2, 13]: 133.8 ± 9.04^## mg %; Blood sugar level (FBG) ([2]; STZ-induced diabetic male mice, Day 0): 117.3 ± 23.99 ^ mg %; Blood sugar level (FBG) ([2]; STZ-induced diabetic male mice, Week 1): 269.2 ± 25.37*** mg %; Blood sugar level (FBG) [2, 14]: 133.4 ± 7.96**^, # mg %; Effect on STZ-induced increased sugar level (FBG), words ([2]; female mice): attenuated the STZ-induced increased sugar level; Effect on STZ-induced increased sugar level (FBG), words ([2]; male mice): attenuated the STZ-induced increased sugar level; Blood sugar level (FBG) ([3]; STZ-induced diabetic female mice): 121.2 ± 8.192 mg %; Blood sugar level (FBG) ([3]; STZ-induced diabetic male mice): 136.2 ± 4.89 mg %; HbA1C level [4, 13]: 5.53 ± 0.46%; HbA1C level ([4]; STZ-induced diabetic female mice, Week 3): 3.08 ± 0.58^## %; HbA1C level [4, 14]: 5.05 ± 0.51%; HbA1C level ([4]; STZ-induced diabetic male mice, Week 3): 4.40 ± 0.65^# %; Effect on STZ-induced increase in HbA1C level, words ([4]; male and female mice, Neem 50, Neem 100, Neem 250, Met 250, vs STZ-induced diabetic mice): attenuated the STZ-induced increased in HbA1C level"
